Values after ≈ are worked out from the molar mass of the structure shown. Like-named read-outs stand apart in the source and are kept apart here.
Columns and labels:
[1] = tested on: delayed-type hypersensitivity (DTH) to sheep erythrocytes; assay: Effect on delayed-type hypersensitivity (DTH) to sheep erythrocytes, sole swelling; format: in vivo, CDF1 mice
Procedure: (§1) The pharmacological effects of spermidine will be illustrated by reference to the following experimental examples, in which spermidine was administered as its phosphate dissolved in physiological saline.
In accordance with the method of Lagrange et al. (Lagrange, P. H., Mackaness, G. B., and Miller, T. E.: Influence of dose and route of antigen injection on the immunological induction of T cells. J. Exp. Med. 139, 528-542, 1974), the effect of spermidine on cellular immunity was investigated using as its index the degree of delayed-type hypersensitivity (DTH) to sheep erythrocytes as the antigen. CDF1 mice (8 weeks old, female) were intravenously injected with 10^5 or 10^8 sheep erythrocytes for immunization, and at the same time, were intraperitoneally injected with spermidine. Four days later, the soles of the mice were subcutaneously injected with 10^8 sheep erythrocytes to induce the DTH reaction. Twenty four hours later, swellings on the soles were measured with a caliper to evaluate the effect of spermidine.

[2] = tested on: interleukine-2 production (T blast cells); assay: Interleukine-2 production by spleen cells, activity of promoting the proliferation of T blast cells; format: cell-based, CDF1 mice; conditions: for activity at 0.001 µg/mL / activity at 0.01 µg/mL / activity at 0.1 µg/mL / activity at 1 µg/mL: Mus musculus, 24 h, control = 100, read-out: ^3 H-thymidine incorporation, T blast cells; for activity at 0.001 µg/mL: 0.001 μg/ml; for activity at 0.01 µg/mL: 0.01 μg/ml; for activity at 0.1 µg/mL: 0.1 μg/ml; for activity at 1 µg/mL: 1 μg/ml
Procedure: (§2) The effect of spermidine on the production of interleukine was investigated in accordance with the method of Larsson et al. (Larsson, E-L: Mechanism of T cell activation II. Antigen- and lectin-dependent acquisition of responsiveness to TCGF is a nonmitogenic, active response of resting T cells. J. Immunol. 126, 1323-1326, 1981).
(§3) Spermidine in a varying concentration was added to 1×10^7 spleen cells/ml of CDF1 mice. In the presence or absence of added concanavalin A (2 μg/ml), the stimulant of interleukine-2 production, the cells were then cultured in a cell incubator kept at 37° C. and at a carbon dioxide concentration of 5% for 24 hours. After completion of the incubation, α-methylmannoside was added to the supernatant to inactivate concanavalin A. The supernatant was collected to examine its interleukine-2 activity. The interleukine-2 activity was determined by the activity of promoting the proliferation of T blast cells and the activity of promoting the division of thymocytes. The latter two activities were determined by measuring ^3 H-thymidine incorporations to both types of cells.

[3] = tested on: interleukine-2 production (Thymocytes); assay: Interleukine-2 production by spleen cells, activity of promoting the division of thymocytes; format: cell-based, CDF1 mice; conditions: for activity at 0.001 µg/mL / activity at 0.01 µg/mL / activity at 0.1 µg/mL / activity at 1 µg/mL: Mus musculus, Thymocyte, 24 h, control = 100, read-out: ^3 H-thymidine incorporation, Thymocytes; for activity at 0.001 µg/mL: 0.001 μg/ml; for activity at 0.01 µg/mL: 0.01 μg/ml; for activity at 0.1 µg/mL: 0.1 μg/ml; for activity at 1 µg/mL: 1 μg/ml
Procedure: as §2, §3

L-1210 cells = assay: Growth inhibitory effect on cultured L-1210 cells; format: cell-based; conditions: Mus musculus, L1210, 48 hours, 37° C., read-out: concentration at which 50% of the original cells were inhibited from growth
Procedure: A study was conducted on the growth inhibitory effect of spermidine on cultures of IMC cancer cells and L-1210 cells. IMC cancer cells were cultured in an RPMI 1640 medium containing 10% bovine fetus serum and 2-mercaptoethanol, and L-1210 cells in an MEM medium containing 10% calf serum, for 48 hours at 37° C. in 5% carbon dioxide. The number of cultured cells was counted with a Coulter counter to evaluate the degree of cell proliferation. Spermidine was added at the start of incubation.

IMC carcinoma = assay: Antitumor effect on IMC carcinoma transplanted subcutaneously into CDF1 mice; format: in vivo; conditions: for Weight of tumor ± S.D.: 10 times on alternative days, day 30, in mg (unit assumed)
Procedure: as §1
(§4) (a) The antitumor effect of spermidine was investigated on IMC carcinoma successively transplanted into CDF1 mice and on S180 sarcoma transplanted into ICR mice. 1×10^6 tumor cells of each of the above type were transplanted subcutaneously into such mice (Day 0). From Day 1 onwards, spermidine was intraperitoneally injected a total of 10 times (once daily on alternative days). Thirty days after transplantation of tumor cells, the tumor was removed and weighed to evaluate the effect of spermidine.

S-180 sarcoma = assay: Antitumor effect on S180 sarcoma transplanted subcutaneously into ICR mice; format: in vivo; conditions: for Weight of tumor ± S.D.: 10 times on alternative days, day 30, in mg (unit assumed)
Procedure: as §1, §4

mouse leukemia L-1210 = assay: Survival of CDF1 mice transplanted with mouse leukemia L-1210; format: in vivo; conditions: for Increase of life span: control = 100, mice surviving 60 days excluded
Procedure: as §1
(b) 1×10^2 mouse leukemia L-1210 cells were transplanted into CDF1 mice by subcutaneous injection (Day 0). From Day 1 onwards, 0.5 to 5 mg/kg of spermidine was administered in total of 10 times, once daily on alternative days, to investigate on the number of days the mice survived.

[4] = 5 mg/kg, 10 times on alternative days

NCCCCNCCCN [Spermidine, spermidine]
effect on normal cellular immunity ([1]; 5 to 0.005 mg/kg): enhances normal cellular immunity
Swelling on the sole ([1]; 10^5 sheep erythrocytes, 0.01 μg/mouse (0.0005) i.p.): 5.8 ± 0.4 × 0.1 mm
% increase (swelling on the sole) ([1]; 10^5 sheep erythrocytes, 0.01 μg/mouse (0.0005) i.p., untreated 10^5 group = 100): 91%
Swelling on the sole ([1]; 10^5 sheep erythrocytes, 0.1 μg/mouse (0.005) i.p.): 9.4 ± 0.7 × 0.1 mm
% increase (swelling on the sole) ([1]; 10^5 sheep erythrocytes, 0.1 μg/mouse (0.005) i.p., untreated 10^5 group = 100): 147%
Swelling on the sole ([1]; 10^5 sheep erythrocytes, 1 μg/mouse (0.05) i.p.): 8.5 ± 0.7 × 0.1 mm
% increase (swelling on the sole) ([1]; 10^5 sheep erythrocytes, 1 μg/mouse (0.05) i.p., untreated 10^5 group = 100): 133%
Swelling on the sole ([1]; 10^5 sheep erythrocytes, 10 μg/mouse (0.5) i.p.): 8.9 ± 0.7 × 0.1 mm
% increase (swelling on the sole) ([1]; 10^5 sheep erythrocytes, 10 μg/mouse (0.5) i.p., untreated 10^5 group = 100): 139%
Swelling on the sole ([1]; 10^5 sheep erythrocytes, 100 μg/mouse (5) i.p.): 8.1 ± 1.1 × 0.1 mm
% increase (swelling on the sole) ([1]; 10^5 sheep erythrocytes, 100 μg/mouse (5) i.p., untreated 10^5 group = 100): 126%
Swelling on the sole ([1]; 10^5 sheep erythrocytes, 1000 μg/mouse (50) i.p.): 7.1 ± 0.3 × 0.1 mm
% increase (swelling on the sole) ([1]; 10^5 sheep erythrocytes, 1000 μg/mouse (50) i.p., untreated 10^5 group = 100): 111%
effect of enhancing cellular immunity ([1]; 10^5 sheep erythrocytes, 0.01 or 1000 μg/mouse): no enhancing effect
effect of enhancing cellular immunity ([1]; 10^5 sheep erythrocytes, 0.1 to 100 μg/mouse): significant effect of enhancing cellular immunity
Swelling on the sole ([1]; 10^8 sheep erythrocytes, 0.01 μg/mouse (0.0005) i.p.): 4.5 ± 0.2 × 0.1 mm
% increase (swelling on the sole) ([1]; 10^8 sheep erythrocytes, 0.01 μg/mouse (0.0005) i.p., untreated 10^5 group = 100, untreated 10^8 group = 48): 70%
Swelling on the sole ([1]; 10^8 sheep erythrocytes, 0.1 μg/mouse (0.005) i.p.): 5.3 ± 0.3 × 0.1 mm
% increase (swelling on the sole) ([1]; 10^8 sheep erythrocytes, 0.1 μg/mouse (0.005) i.p., untreated 10^5 group = 100, untreated 10^8 group = 48): 83%
Swelling on the sole ([1]; 10^8 sheep erythrocytes, 1 μg/mouse (0.05) i.p.): 6.3 ± 0.3 × 0.1 mm
% increase (swelling on the sole) ([1]; 10^8 sheep erythrocytes, 1 μg/mouse (0.05) i.p., untreated 10^5 group = 100, untreated 10^8 group = 48): 98%
Swelling on the sole ([1]; 10^8 sheep erythrocytes, 10 μg/mouse (0.5) i.p.): 6.4 ± 0.06 × 0.1 mm
% increase (swelling on the sole) ([1]; 10^8 sheep erythrocytes, 10 μg/mouse (0.5) i.p., untreated 10^5 group = 100, untreated 10^8 group = 48): 100%
Swelling on the sole ([1]; 10^8 sheep erythrocytes, 100 μg/mouse (5.0) i.p.): 6.4 ± 0.4 × 0.1 mm
% increase (swelling on the sole) ([1]; 10^8 sheep erythrocytes, 100 μg/mouse (5.0) i.p., untreated 10^5 group = 100, untreated 10^8 group = 48): 100%
Swelling on the sole ([1]; 10^8 sheep erythrocytes, 1000 μg/mouse (50) i.p.): 7.4 ± 0.5 × 0.1 mm
% increase (swelling on the sole) ([1]; 10^8 sheep erythrocytes, 1000 μg/mouse (50) i.p., untreated 10^5 group = 100, untreated 10^8 group = 48): 116%
effect of strengthening cellular immunity ([1]; 10^8 sheep erythrocytes, 0.1 to 1000 μg/mouse, vs 10^8 control group): marked effect of strengthening cellular immunity
DTH reaction compared with group immunized with 10^5 erythrocytes ([1]; 10^8 sheep erythrocytes, 10 to 1000 μg/mouse): comparable
effect on suppression of cellular immunity by suppressor cells ([1]; 50 to 0.5 mg/kg): inhibit the suppression of cellular immunity by suppressor cells
optimal concentration (interleukin-2 production) [2]: 0.1 µg/mL
activity at 0.001 µg/mL ([2]; with Con A (2 μg/ml)): 94%
activity at 0.001 µg/mL ([2]; without Con A): 137%
activity at 0.01 µg/mL ([2]; with Con A (2 μg/ml)): 153%
activity at 0.01 µg/mL ([2]; without Con A): 152%
activity at 0.1 µg/mL ([2]; with Con A (2 μg/ml)): 157%
activity at 0.1 µg/mL ([2]; without Con A): 166%
activity at 1 µg/mL ([2]; with Con A (2 μg/ml)): 152%
activity at 1 µg/mL ([2]; without Con A): 136%
optimal concentration (interleukin-2 production) [3]: 0.1 µg/mL
activity at 0.001 µg/mL ([3]; with Con A (2 μg/ml)): 126%
activity at 0.001 µg/mL ([3]; without Con A): 171%
activity at 0.01 µg/mL ([3]; with Con A (2 μg/ml)): 130%
activity at 0.01 µg/mL ([3]; without Con A): 255%
activity at 0.1 µg/mL ([3]; with Con A (2 μg/ml)): 149%
activity at 0.1 µg/mL ([3]; without Con A): 281%
activity at 1 µg/mL ([3]; with Con A (2 μg/ml)): 135%
activity at 1 µg/mL ([3]; without Con A): 90%
IC50 (L-1210 cells): 2.8 µg/mL (≈ 19.3 µM)
% inhibition (weight of tumor) (IMC carcinoma; 0.05 mg/kg/day i.p.): 26%
Weight of tumor ± S.D. (IMC carcinoma; 0.05 mg/kg/day i.p.): 5112 ± 2263
% inhibition (weight of tumor) (IMC carcinoma; 0.5 mg/kg/day i.p.): 58%
Weight of tumor ± S.D. (IMC carcinoma; 0.5 mg/kg/day i.p.): 2893 ± 964
% inhibition (weight of tumor) (IMC carcinoma; 5 mg/kg/day i.p.): 40%
Weight of tumor ± S.D. (IMC carcinoma; 5 mg/kg/day i.p.): 4125 ± 1852
% inhibition (weight of tumor) (IMC carcinoma; 50 mg/kg/day i.p.): 44%
Weight of tumor ± S.D. (IMC carcinoma; 50 mg/kg/day i.p.): 3886 ± 1351
% inhibition (weight of tumor) (S-180 sarcoma; 0.05 mg/kg/day i.p.): 9%
Weight of tumor ± S.D. (S-180 sarcoma; 0.05 mg/kg/day i.p.): 5193 ± 1522
% inhibition (weight of tumor) (S-180 sarcoma; 0.5 mg/kg/day i.p.): 35%
Weight of tumor ± S.D. (S-180 sarcoma; 0.5 mg/kg/day i.p.): 3689 ± 1331
% inhibition (weight of tumor) (S-180 sarcoma; 5 mg/kg/day i.p.): 63%
Weight of tumor ± S.D. (S-180 sarcoma; 5 mg/kg/day i.p.): 2087 ± 1040
% inhibition (weight of tumor) (S-180 sarcoma; 50 mg/kg/day i.p.): 43%
Weight of tumor ± S.D. (S-180 sarcoma; 50 mg/kg/day i.p.): 3245 ± 1106
Survival rate on Day 60 (mouse leukemia L-1210; 0.5 mg/kg): 1/10
Survival period (mouse leukemia L-1210; 0.5 mg/kg, 10 times on alternative days): 16.0 ± 3.1 days
Increase of life span (mouse leukemia L-1210; 0.5 mg/kg): 109%
Survival rate on Day 60 (mouse leukemia L-1210; 5 mg/kg): 3/10
Survival period (mouse leukemia L-1210; [4]): 15.2 ± 2.2 days
complete remission (mouse leukemia L-1210; [4]): 3 out of 10
Increase of life span (mouse leukemia L-1210; 5 mg/kg): 104%

From US4559362A, “Immunopotentiator” (Zaidan Hojin Biseibutsu Kagaku Kenkyu Kai, priority 1982, dated 1985)
